Measured values from patent US6723695B1, “CTL epitopes from EBV” (priority 1997, dated 2004).
“Also recorded” adds a separate entry of the source. Where two headings read alike, the source gives them in different places.

Legend:
[1] = test system: peptide-sensitized HLA-matched PHA blasts; type: cell-based, human
[2] = test system: peptide-sensitized autologous PHA blasts
[3] = test system: gp350- and gp85-specific CTL response; conditions: mouse, in vivo, sc
HLA A2 on T2 cells = biological target: T1, HLA A2 on T2 cells (Homo sapiens, UniProt P04439, D140Y/D185E/D98H/E176V/E277Q/G131W/G231S/I119V/I121R/I166T/I218V/L300P/L318F/N151K/N90K/P208A/P217A/Q86G/Q94H/R138H/R169H/T345S); test: MHC stabilisation assay on T2 cells (HLA A2 expression by FACS); type: cell-based; conditions: peptide 200 μg/ml, 26° C. 14-16h then 37° C. 2-3h
T1 construct: using HLA A2-positive T2 cells; endogenous in cells; host or cells: T2 (174xCEM.T2), TAP-negative B x T hybrid cell line
Procedure: FIG. 1:MHC stablization analysis on T2 cells using potential HLA A2 binding peptides within LMP1. T2 cells were initially incubated with 200 μl of each of the peptides (200 μg/ml) for 14-16h at 26° C. followed by incubation at 37° C. for 2-3h. HLA A2 expression on these cells was analysed by FACS using the BB7.2 antibody. The dotted line indicates the background mean fluorescence intensity for HIA A2 on T2 cells without any peptide. The LMP1 peptides showing significant stablization of HLA A2 molecules on T2 cells are indicated by arrows.
FIG. 6:Effect of variant LMP1 peptides on the HLA A2 binding (panel A) and CTL recognition (panel B). For HLA A2 binding analysis on T2 cells were initially incubated with 200 μl of each of the peptides (200 μg/ml) for 14-16h at 26° C. followed by incubation at 37° C. for 2-3h. HLA A2 expression on these cells was analysed by FACS using BB7.2 antibody (panel A). The dotted line indicates the background mean fluorescence intensity for HLA A2 on T2 cells without any peptide. […] Results are expressed as percent specific lysis. […]
FIG. 8:MHC stabilization analysis on T2 cells using potential HLA A2 binding peptides within gp85 (panel A) and gp350 (panel B). […] HLA A2 expression on these cells was analysed by FACS using the BB7.2 antibody. The dotted line indicates the background mean fluorescence intensity for HLA A2 on T2 cells without any peptide. […]

CTL clone SB7 = test: LMP1-specific CTL clone SB7, peptide recognition / 51Cr-release assay; type: cell-based, human; conditions: donor; for recognition of peptide by CTL clone SB7: effector:target 4:1
[4] = test system: peptide-sensitized autologous PHA blasts; test: Polyclonal CTLs stimulated with LMP1 peptides, 51Cr-release assay; type: cell-based, human; conditions: HLA A2-positive donor; effector:target 20:1; targets 1 μg/ml peptide
EBV-positive lymphomas = conditions: cited from earlier work

LMIIPLINV
ex vivo CTL recognition of peptide-sensitized targets [1]: recognised | reactivity of polyclonal CTL effectors against peptide-sensitized PHA blasts [2]: recognized

SLVIVTTFV
ex vivo CTL recognition of peptide-sensitized targets [1]: strong reactivity | reactivity of polyclonal CTL effectors against peptide-sensitized PHA blasts [2]: strong reactivity | CTL response in splenocytes [3]: induced strong CTL response | lysis of targets by CTLs activated from splenocytes of immunized mice [3]: variable in vitro CTL lysis

TLFIGSHVV
ex vivo CTL response during acute infection [1]: not detectable | reactivity of polyclonal CTL effectors against peptide-sensitized PHA blasts [2]: recognized | CTL response in splenocytes [3]: induced strong CTL response | lysis of targets by CTLs activated from splenocytes of immunized mice [3]: consistently showed strong lysis

VLQWASLAV
ex vivo CTL recognition of peptide-sensitized targets [1]: strong reactivity; also recorded: recognised | reactivity of polyclonal CTL effectors against peptide-sensitized PHA blasts [2]: strong reactivity | CTL response in splenocytes [3]: induced strong CTL response | lysis of targets by CTLs activated from splenocytes of immunized mice [3]: variable in vitro CTL lysis

YFLEILWGL
expression of HLA A2 on T2 cells (HLA A2 on T2 cells): significantly increased | recognition of peptide by CTL clone SB7 (CTL clone SB7): no CTL activity

YLLEILWRL (Epstein Barr Virus)
expression of HLA A2 on T2 cells (HLA A2 on T2 cells): significantly increased | recognition of peptide by CTL clone SB7 (CTL clone SB7): efficiently recognized

YLQQNWWTL (Epstein Barr Virus) [LMP1 residues 159-167]
activation of polyclonal CTLs (specific lysis) [4]: significant activation of polyclonal CTLs; also recorded: weaker response | isolation of peptide-specific CTL clones (CTL clone SB7): No CTL clones specific | ex vivo CTL recognition of peptide-sensitized targets ([1]; all three IM patients, peptide 1 μg/ml): clear recognition

B1: gp350: highly purified EBV structural glycoprotein gp350, subunit preparation (recombinant and affinity purified) (protein, UniProt P03200 1-907, looked up)
Envelope glycoprotein GP350: MEAALLVCQYTIQSLIHLTGEDPGFFNVEIPEFPFYPTCNVCTADVNVTINFDVGGKKHQLDLDFGQLTPHTKAVYQPRGAFGGSENATNLFLLELLGAGELALTMRSKKLPINVTTGEEQQVSLESVDVYFQDVFGTMWCHHAEMQNPVYLIPETVPYIKWDNCNSTNITAVVRAQGLDVTLPLSLPTSAQDSNFSVKTEMLGNEIDIECIMEDGEISQVLPGDNKFNITCSGYESHVPSGGILTSTSPVATPIPGTGYAYSLRLTPRPVSRFLGNNSILYVFYSGNGPKASGGDYCIQSNIVFSDEIPASQDMPTNTTDITYVGDNATYSVPMVTSEDANSPNVTVTAFWAWPNNTETDFKCKWTLTSGTPSGCENISGAFASNRTFDITVSGLGTAPKTLIITRTATNATTTTHKVIFSKAPESTTTSPTLNTTGFADPNTTTGLPSSTHVPTNLTAPASTGPTVSTADVTSPTPAGTTSGASPVTPSPSPWDNGTESKAPDMTSSTSPVTTPTPNATSPTPAVTTPTPNATSPTPAVTTPTPNATSPTLGKTSPTSAVTTPTPNATSPTLGKTSPTSAVTTPTPNATSPTLGKTSPTSAVTTPTPNATGPTVGETSPQANATNHTLGGTSPTPVVTSQPKNATSAVTTGQHNITSSSTSSMSLRPSSNPETLSPSTSDNSTSHMPLLTSAHPTGGENITQVTPASISTHHVSTSSPAPRPGTTSQASGPGNSSTSTKPGEVNVTKGTPPQNATSPQAPSGQKTAVPTVTSTGGKANSTTGGKHTTGHGARTSTEPTTDYGGDSTTPRPRYNATTYLPPSTSSKLRPRWTFTSPPVTTAQATVPVPPTSQPRFSNLSMLVLQWASLAVLTLLLLLVMADCAFRRNLSTSHTYTTPPYDDAETYV
tumor formation / tumor outgrowth (EBV-positive lymphomas; cotton-top tamarins): inhibited tumor formation | serum neutralizing antibodies (EBV-positive lymphomas; subcutaneously with adjuvants (muramyl dipeptide or ISCOMs)): induced high levels of serum neutralizing antibodies
